Source: article PMC11481871, “Discovery of GuaB inhibitors with efficacy against Acinetobacter baumannii infection” (mBio, 2024)
In brackets after ≈: the same amount, converted by molar mass. Several values for one entry are separate records, joined by “and”; a condition that tells them apart may be missing. Equal values may be shown once. Read-outs that look alike come from different tables or passages of the source.

Key:
[1] = system: Acinetobacter baumannii ATCC19606 GuaB mutants; assay: MIC on GuaBi-resistant A. baumannii 19606 guaB mutants; assay type: cell-based; conditions: for MIC: Acinetobacter baumannii; for Fold shift in MIC vs parental wild-type / MIC of resistant mutant: from fluctuation assay
E. coli GuaB = E. coli GuaB (Escherichia coli, UniProt P0ADG7); assay: GuaB biochemical IC50
Enterococcus faecalis = assay: MIC, CLSI microdilution; assay type: cell-based; conditions: Enterococcus faecalis (ATCC47077); RPMI1640
Citrobacter werkmanii = assay: MIC, CLSI microdilution; assay type: cell-based; conditions: 20 h; Citrobacter werkmanii (ATCC51114); M9 + casamino acids + glucose
A. baumannii GuaB = A. baumannii GuaB (Acinetobacter baumannii, UniProt D0CF46); assay: GuaB biochemical IC50
in vitro = assay type: cell-based, human; conditions: human
Procedure: (§1) Primary human hepatocytes were plated on 384-well, collagen-coated plates in incubation media with no serum or with 10% fetal bovine serum (FBS). Eighteen hours later, cells were treated with the test article at seven concentrations starting at 100 µM in twofold dilutions, chlorpromazine (positive control) at seven concentrations starting at 100 µM in twofold dilutions or aflatoxin (positive control) at seven concentrations starting at 25 µM in twofold dilutions. Cell viability was then assayed using the Promega Cell TiterGlo ATP Assay.

[2] = system: Primary human hepatocytes; assay: in vitro; assay type: cell-based
Procedure: as §1

Escherichia coli = assay: MIC, CLSI microdilution; assay type: cell-based; conditions: 20 h; Escherichia coli UPEC CFT073; M9 + casamino acids + glucose
Enterobacter cloacae = assay: MIC, CLSI microdilution; assay type: cell-based; conditions: 20 h; Enterobacter cloacae (ATCC222); M9 + casamino acids + glucose
Klebsiella pneumoniae = assay: MIC, CLSI microdilution; assay type: cell-based; conditions: ATCC43816, 20 h; Klebsiella pneumoniae (ATCC 43816); M9 + casamino acids + glucose
[3] = system: 41 different cellular targets; assay: Secondary pharmacology panel (Cerep Eurofins); assay type: binding; conditions: for Hits (>50% Binding) / Hits (>75% Binding): 41 targets
Mycobacterium marinum = assay: MIC, CLSI microdilution; assay type: cell-based; conditions: 7H9 + OADC, 48 h
Serratia marcescens = assay: MIC, CLSI microdilution; assay type: cell-based; conditions: 20 h; Serratia marcescens (ATCC29021); M9 + casamino acids + glucose
[4] = system: A. baumannii 19606 (wild-type); assay: microbe, parasite or virus in culture; assay type: cell-based, Acinetobacter baumannii; conditions: for MIC: Acinetobacter baumannii
S. aureus GuaB = S. aureus GuaB (Staphylococcus aureus, UniProt P99106); assay: GuaB biochemical IC50
H. sapiens IMPDH2 = H. sapiens IMPDH2 (Homo sapiens, UniProt P12268); assay: IMPDH2 biochemical IC50
Enterococcus faecium = assay: MIC, CLSI microdilution; assay type: cell-based; conditions: Enterococcus faecium (ATCC700221); RPMI1640
Mycobacterium avium = assay: MIC, CLSI microdilution; assay type: cell-based; conditions: 336 h; Mycobacterium avium (ATCC25291); 7H9 + OADC, 14 days
Staphylococcus aureus = assay: MIC, CLSI microdilution; assay type: cell-based; conditions: NRS 384 / USA300; Staphylococcus aureus USA300 NRS384; RPMI1640
Enterobacter aerogenes = assay: MIC, CLSI microdilution; assay type: cell-based; conditions: Klebsiella aerogenes, 20 h; Enterobacter aerogenes (ATCC13048); M9 + casamino acids + glucose
Acinetobacter baumannii = assay: MIC, CLSI microdilution; assay type: cell-based; conditions: 20 h, M9 + casamino acids + glucose
Pseudomonas aeruginosa = assay: MIC, CLSI microdilution; assay type: cell-based; conditions: 20 h; Pseudomonas aeruginosa PAO1; M9 + casamino acids + glucose
[5] = system: A. baumannii ΔlpxA (LPS-null); assay: MIC on LPS-null A. baumannii; assay type: cell-based; conditions: Acinetobacter baumannii, read-out: Avg. MIC
[6] = system: A. baumannii ΔadeJ (efflux-defective); assay: microbe, parasite or virus in culture; assay type: cell-based; conditions: Acinetobacter baumannii, read-out: Avg. MIC
[7] = system: Stenotrophomonas maltophilia; assay: MIC, CLSI microdilution; assay type: cell-based; conditions: 20 h; Stenotrophomonas maltophilia (ATCC700267); M9 + casamino acids + glucose
Bacillus subtilis = assay: MIC, CLSI microdilution; assay type: cell-based; conditions: RPMI1640
Proteus mirabilis = assay: MIC, CLSI microdilution; assay type: cell-based; conditions: 20 h; Proteus mirabilis (ATCC29906); M9 + casamino acids + glucose
[8] = system: Staphylococcus epidermidis; assay: MIC, CLSI microdilution; assay type: cell-based; conditions: Staphylococcus epidermidis RP62A (ATCC35984); RPMI1640
[9] = system: Mycobacterium tuberculosis H37Rv; assay: MIC, resazurin redox assay; assay type: cell-based; conditions: ATCC 27294 / H37Rv, 192 h, Mycobacterium tuberculosis H37Rv (ATCC27294)
Mycobacterium smegmatis = assay: MIC, CLSI microdilution; assay type: cell-based; conditions: Mycolicibacterium smegmatis; Mycobacterium smegmatis mc2-155; 7H9 + OADC, 48 h

Chain of S. aureus GuaB (P99106 whole entry): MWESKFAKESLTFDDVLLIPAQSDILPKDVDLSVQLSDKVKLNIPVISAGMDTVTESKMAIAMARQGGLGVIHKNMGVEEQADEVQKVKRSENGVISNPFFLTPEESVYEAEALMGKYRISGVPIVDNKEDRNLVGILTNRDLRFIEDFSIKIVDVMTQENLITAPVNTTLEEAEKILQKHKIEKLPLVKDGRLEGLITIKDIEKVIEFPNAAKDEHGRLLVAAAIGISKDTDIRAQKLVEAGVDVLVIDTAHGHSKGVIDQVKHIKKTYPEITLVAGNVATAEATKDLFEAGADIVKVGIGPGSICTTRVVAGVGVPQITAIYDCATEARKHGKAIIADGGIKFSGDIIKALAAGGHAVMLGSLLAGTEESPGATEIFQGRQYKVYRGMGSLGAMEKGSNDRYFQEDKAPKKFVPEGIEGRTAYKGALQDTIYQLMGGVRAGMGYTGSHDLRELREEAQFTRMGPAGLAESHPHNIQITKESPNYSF
Chain of E. coli GuaB (P0ADG7 whole entry): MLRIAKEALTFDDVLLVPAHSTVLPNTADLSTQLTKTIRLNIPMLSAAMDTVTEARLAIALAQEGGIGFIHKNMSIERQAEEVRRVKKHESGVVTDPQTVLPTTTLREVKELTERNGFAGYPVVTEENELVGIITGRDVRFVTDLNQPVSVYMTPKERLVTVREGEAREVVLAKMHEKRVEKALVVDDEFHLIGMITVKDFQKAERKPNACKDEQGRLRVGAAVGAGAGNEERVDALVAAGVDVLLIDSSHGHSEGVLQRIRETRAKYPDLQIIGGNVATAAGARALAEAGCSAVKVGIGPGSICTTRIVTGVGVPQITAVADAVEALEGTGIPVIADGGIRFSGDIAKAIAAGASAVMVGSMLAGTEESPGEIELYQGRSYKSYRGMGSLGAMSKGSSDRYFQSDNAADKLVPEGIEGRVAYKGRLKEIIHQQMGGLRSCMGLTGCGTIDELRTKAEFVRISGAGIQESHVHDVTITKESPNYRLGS
Chain of A. baumannii GuaB (D0CF46 entry or part of it): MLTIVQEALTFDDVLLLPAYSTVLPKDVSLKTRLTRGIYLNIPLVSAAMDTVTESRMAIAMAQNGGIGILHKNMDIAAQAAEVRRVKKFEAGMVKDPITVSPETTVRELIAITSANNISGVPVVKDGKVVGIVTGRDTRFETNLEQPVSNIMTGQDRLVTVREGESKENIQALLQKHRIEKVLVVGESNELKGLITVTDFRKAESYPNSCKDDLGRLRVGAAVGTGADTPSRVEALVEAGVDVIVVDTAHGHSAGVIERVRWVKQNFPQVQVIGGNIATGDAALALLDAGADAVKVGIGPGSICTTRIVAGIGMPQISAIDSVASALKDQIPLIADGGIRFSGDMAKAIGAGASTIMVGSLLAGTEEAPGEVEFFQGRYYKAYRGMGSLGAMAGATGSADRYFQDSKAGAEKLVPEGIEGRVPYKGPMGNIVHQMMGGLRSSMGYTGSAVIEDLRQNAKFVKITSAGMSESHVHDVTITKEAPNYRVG

C[C@H](Nc1ccc2ncc(CO)cc2c1)C(=O)Nc1ccc(Cl)c(N(C)C)c1 [G2, (2S)-N-[4-chloro-3-(dimethylamino)phenyl]-2-[[3-(hydroxymethyl)-6-quinolyl]amino]propanamide]
MIC ([1]; ATCC19606, read-out: A.b.19606 Average CLSI MIC (n=3), guaB allele P25A, M9 media): 66.7 µM (≈ 26.6 µg/mL)
MIC ([1]; ATCC19606, read-out: A.b.19606 Average CLSI MIC (n=3), guaB allele P25S, M9 media): 66.7 µM (≈ 26.6 µg/mL)
MIC ([1]; ATCC19606, read-out: A.b.19606 Average CLSI MIC (n=3), guaB allele Y445C, M9 media): 50 µM (≈ 19.9 µg/mL)
MIC ([1]; ATCC19606, read-out: A.b.19606 Average CLSI MIC (n=3), guaB allele Y445N, M9 media): > 100 µM
MIC ([1]; ATCC19606, read-out: A.b.19606 Average CLSI MIC (n=3), guaB allele Y445S, M9 media): > 100 µM
MIC ([1]; ATCC19606, read-out: MIC of resistant mutant, resistance allele P25A, from fluctuation assay): 50 µM
MIC ([1]; ATCC19606, read-out: MIC of resistant mutant, resistance allele P25S, from fluctuation assay): 50 µM
MIC ([1]; ATCC19606, read-out: MIC of resistant mutant, resistance allele Y445C, from fluctuation assay): 50 µM
MIC ([1]; ATCC19606, read-out: MIC of resistant mutant, resistance allele Y445S, from fluctuation assay): 100 µM
shifts in MIC conferred by on-target mutations ([1]; GuaBi-resistant mutants): ≥ 32 fold
GuaBi CLSI MIC fold change from parent strain ([1]; guaB allele P25A): 16
GuaBi CLSI MIC fold change from parent strain ([1]; guaB allele P25S): 16
GuaBi CLSI MIC fold change from parent strain ([1]; guaB allele Y445C): 12
GuaBi CLSI MIC fold change from parent strain ([1]; guaB allele Y445N): >25
GuaBi CLSI MIC fold change from parent strain ([1]; guaB allele Y445S): >25
Fold shift in MIC vs parental wild-type ([1]; resistance allele P25A): 32, 32, 32
Fold shift in MIC vs parental wild-type ([1]; resistance allele P25S): 32, 32, 32 and 32
MIC of resistant mutant ([1]; resistance allele P25S): 50 µM
Fold shift in MIC vs parental wild-type ([1]; resistance allele Y445C): 32, 32, 32 and 64
MIC of resistant mutant ([1]; resistance allele Y445C): 100 µM
Fold shift in MIC vs parental wild-type ([1]; resistance allele Y445S): 64
IC50 (E. coli GuaB): 16 nM
MIC (Enterococcus faecalis): 0.3 µM (≈ 0.12 µg/mL)
MIC (Citrobacter werkmanii): > 100 µM
IC50 (A. baumannii GuaB): 0.63 nM
IC50 at 2 day (in vitro; General cytotoxicity IC50, Serum): > 100000 nM
IC50 at 2 day (in vitro; General cytotoxicity IC50, Serum-Free): > 100000 nM
in vitro safety profile: cytotoxicity [2]: low cytotoxicity
MIC (Escherichia coli): > 100 µM
MIC (Enterobacter cloacae): > 100 µM
MIC (Klebsiella pneumoniae): > 100 µM
in vitro safety profile: promiscuity [3]: low promiscuity
in vitro safety profile: selectivity [3]: good selectivity
Promiscuity Risk ([3]; 10µM): 0%
Selectivity Risk ([3]; 10µM): 0%
Hits (>50% Binding) ([3]; 10µM): 0
Hits (>75% Binding) ([3]; 10µM): 0
Promiscuity Risk ([3]; 50µM): 0%
Selectivity Risk ([3]; 50µM): 3%
Hits (>50% Binding) ([3]; 50µM): 1
Hits (>75% Binding) ([3]; 50µM): 0
MIC (Mycobacterium marinum): 0.1 µM
MIC (Serratia marcescens): > 100 µM
MIC ([4]; 24 h, M9 media + 100µM guanine, 24 hours, read-out: A.b.19606 Average CLSI MIC (n=3)): > 100 µM
MIC ([4]; 24 h, M9 media, 24 hours, read-out: A.b.19606 Average CLSI MIC (n=3)): 4.2 µM (≈ 1.68 µg/mL)
MIC ([4]; A. baumannii 19606 wild-type (Fig 3D), read-out: Avg. MIC): 2 µM (≈ 0.798 µg/mL)
MIC ([4]; guaB allele wild-type, M9 media (cross-resistance table), read-out: A.b.19606 Average CLSI MIC (n=3)): 4.2 µM (≈ 1.68 µg/mL)
GuaBi CLSI MIC fold change from parent strain ([4]; guaB allele wild-type): 1
IC50 (S. aureus GuaB): 3.4 nM
IC50 (H. sapiens IMPDH2): > 50000 nM
MIC (Enterococcus faecium): 5.2 µM (≈ 2.07 µg/mL)
MIC (Mycobacterium avium): 12.5 µM
MIC (Staphylococcus aureus): 1.6 µM (≈ 0.638 µg/mL)
MIC (Enterobacter aerogenes): > 100 µM
MIC (Acinetobacter baumannii): 3.1 µM
MIC (Pseudomonas aeruginosa): > 100 µM
MIC [5]: 0.07 µM (≈ 0.0279 µg/mL)
MIC [6]: 0.04 µM (≈ 0.016 µg/mL)
MIC [7]: 38 µM
MIC (Bacillus subtilis): 13.8 µM (≈ 5.5 µg/mL)
MIC (Proteus mirabilis): > 100 µM
MIC [8]: 0.4 µM (≈ 0.16 µg/mL)
MIC [9]: 2.5 µM (≈ 0.997 µg/mL)
MIC (Mycobacterium smegmatis): 1.3 µM
